Reference: publication PMC8301998, “Discovery of Novel Allosteric Modulators Targeting an Extra-Helical Binding Site of GLP-1R Using Structure- and Ligand-Based Virtual Screening” (Biomolecules, 2021)
pEC50, pIC50: −log10 of the molar value. Read-outs that look alike come from different tables or passages of the source. Values belong to the compound of their own block, whether it stands above or below them.

Assays:
[1] = target: T1, GLP-1R (Homo sapiens, UniProt P43220); conditions: for Modulation of GLP-1-elicited cAMP accumulation / GLP-1 potency (in words): GLP-1R expressing CHO-K1 cells
T1 sequence (P43220 24-463): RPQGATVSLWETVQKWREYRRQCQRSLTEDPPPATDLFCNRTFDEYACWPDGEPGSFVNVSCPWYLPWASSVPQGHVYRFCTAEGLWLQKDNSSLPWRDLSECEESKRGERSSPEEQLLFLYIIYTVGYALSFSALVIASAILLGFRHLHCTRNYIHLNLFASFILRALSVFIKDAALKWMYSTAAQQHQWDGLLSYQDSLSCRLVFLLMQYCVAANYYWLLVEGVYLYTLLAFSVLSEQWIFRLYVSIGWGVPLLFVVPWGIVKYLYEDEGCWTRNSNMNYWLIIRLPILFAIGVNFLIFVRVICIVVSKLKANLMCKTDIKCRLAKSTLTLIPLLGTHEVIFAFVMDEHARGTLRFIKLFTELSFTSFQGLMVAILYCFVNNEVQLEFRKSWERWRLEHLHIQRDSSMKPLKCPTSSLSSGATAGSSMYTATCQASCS
Description: (§1) cAMP accumulation was measured using the LANCE Ultra cAMP kit (PerkinElmer, Boston, MA, USA) according to the manufacturer’s instructions. […] Cells were then resuspended with assay buffer (DMEM, 0.1% BSA, 5 mM HEPES) and seeded onto 384-well plates (6 × 10^5/mL, 5 μL/well). […] After the addition of 5 μL of Eu-cAMP tracer and ULight-anti-cAMP, the reactions were stopped. The plates were left for 1 h at room temperature to measure time-resolved FRET signals at excitation wavelengths of 620 nm and 665 nm by EnVision (PerkinElmer, Waltham, MA, USA).

[2] = target: T1, GLP-1R; conditions: for Effect on binding of GLP-1 to GLP-1R (in words): radiolabeled GLP-1, WT GLP-1R
Description: (§2) For homogeneous binding, cells were washed twice and incubated with a blocking buffer (F12 supplemented with 33 mM HEPES, and 0.1% (w/v) BSA, pH 7.4) for 2 h at 37 °C. […] Cells were washed three times with ice-cold PBS and lysed using 50 μL of lysis buffer (PBS supplemented with 20 mM Tris–HCl and 1% Triton X-100, pH 7.4). Subsequently, the plates were counted for radioactivity (counts per minute, CPM) in a scintillation counter (MicroBeta^2 Plate Counter, PerkinElmer, Waltham, MA, USA) using a scintillation cocktail (OptiPhaseSuperMix; PerkinElmer, Waltham, MA, USA).

[3] = target: T1, GLP-1R; assay: cell-based
Description: as §2

[4] = target: T1, GLP-1R; assay: cell-based; remark: listed apart in the source
Description: as §1

[5] = target: T2, GLP-1R C347F mutant (Homo sapiens, UniProt P43220, C347F); assay: Whole cell binding assay, competition with radiolabeled GLP-1 at mutant GLP-1R
T2 construct: expressed in transfected cells
T2 sequence (P43220 24-463 C347F): as the sequence (P43220 24-463) above, with C324F counted along it
Description: as §2

[6] = target: T2, GLP-1R C347F mutant; conditions: cited from earlier work
[7] = Table 3, PAMs from LBVS, relative to maximal response of GLP-1 at WT receptor
[8] = Table 3, PAMs, competition with 125I-GLP-1 (40 pM), whole cells
[9] = Table 4, analogues of new PAMs, competition with 125I-GLP-1
[10] = Table 1, NAMs from SBVS, relative to maximal response of GLP-1 at WT receptor
[11] = Table 1, NAMs, competition with 125I-GLP-1 (40 pM), whole cells

Structure (SMILES): O=C(Cn1c(COc2ccccc2)nc2ccccc21)Nc1ccc(Cc2nnn[nH]2)cc1 [C10]
- cAMP Accumulation Emax (% WT) [1, 7]: 92.93 ± 4.4 % WT
- Binding Span ± SEM [2, 8]: 76.17 ± 16.21

- Modulation of GLP-1-elicited cAMP accumulation / GLP-1 potency (in words) [1]: positively modulated GLP-1 potency
- Binding Span ± SEM [2, 8]: −46.37 ± 5.83
- pIC50 [3]: 5.05
Structure (SMILES): CN(CC(=O)N1CCC(C(=O)O)CC1)C(=O)c1cccn1CCc1ccccc1 [C11]

Structure (SMILES): CCOc1ccc(S(=O)(=O)Nc2ccccc2C(=O)OCC(=O)Nc2cc(C)on2)cc1 [C13]
- cAMP Accumulation Emax (% WT) [1, 7]: 76.6 ± 6.24 % WT

Structure (SMILES): COc1ccccc1NS(=O)(=O)c1cc(NC(=O)c2ccc(=O)n(C)n2)ccc1N1CCCC1 [C22]
- cAMP Accumulation Emax (% WT) [1, 7]: 96.9 ± 4.56 % WT
- Binding Span ± SEM [2, 8]: −135.7 ± 8.4

- Modulation of GLP-1-elicited cAMP accumulation / GLP-1 potency (in words) [1]: positively modulated GLP-1 potency
- cAMP Accumulation Emax (% WT) [1, 7]: 98.5 ± 3.6 % WT
- Binding Span ± SEM [2, 8]: N.B. ^d
- Binding pIC50 ± SEM [2, 8]: N.B. ^d
- pEC50 [4]: 4.80
Structure (SMILES): Cc1ccc(-c2nn(-c3ccccc3)cc2C(=O)Nc2cccc(-n3cnnn3)c2)o1 [C23]

Structure (SMILES): COc1ccc(NC(=O)c2n[nH]c3ccc([N+](=O)[O-])cc23)cc1NS(=O)(=O)c1ccc(F)cc1 [C26]
- cAMP Accumulation Emax (% WT) [1, 7]: 89.4 ± 3.72 % WT
- Binding Span ± SEM [2, 8]: −82.09 ± 13.44

Structure (SMILES): O=C(CSc1nnc[nH]1)Nc1sc2c(c1C(=O)NCc1ccccc1)CCCC2 [C31]
- cAMP Accumulation Emax (% WT) [1, 7]: 91.0 ± 0.95 % WT
- Binding Span ± SEM [2, 8]: −102.5 ± 6.85

- cAMP Accumulation Emax (% WT) ([1]; Table 4, analogues of new PAMs): 114.9 ± 8.6 % WT
- Binding Span ± SEM [2, 9]: 51.92 ± 9.60
- pIC50 [3]: 5.39
Structure (SMILES): Cc1ccc(NS(=O)(=O)c2ccc(NC(=O)c3n[nH]c4c3COc3ccccc3-4)cc2)cc1 [CD1652-A009]

- cAMP Accumulation Emax (% WT) ([1]; Table 4, analogues of new PAMs): 92.2 ± 3.9 % WT
- Binding Span ± SEM [2, 9]: N.B. ^c
- Binding pIC50 ± SEM [2, 9]: N.B. ^c
- pEC50 [4]: 4.80
Structure (SMILES): CCC(C)N(CC(=O)N(Cc1cccn1Cc1ccccc1)C1CCCCC1)C(=O)C1CCC1 (stereo not drawn) [CD3532-B002]

- cAMP Accumulation Emax (% WT) ([1]; Table 4, analogues of new PAMs): 78.2 ± 13.6 % WT
- Binding Span ± SEM [2, 9]: 35.25 ± 11.50
Structure (SMILES): CCCCN(CC(=O)N(Cc1cccn1Cc1ccccc1)C1CC1)C(=O)C1CCCC1 [CD3559-D005]

- cAMP Accumulation Emax (% WT) ([1]; Table 4, analogues of new PAMs): 126.1 ± 4.2 % WT
- Binding Span ± SEM [2, 9]: 59.69 ± 15.13
- Effect on binding of GLP-1 to GLP-1R (in words) [2]: weakened the ligand binding
Structure (SMILES): COc1ccc(S(=O)(=O)Nc2cccc(C(=O)Nc3cc(C)on3)c2)cc1 [JK1719-D011]

- Modulation of GLP-1-elicited cAMP accumulation / GLP-1 potency (in words) [1]: negatively modulated
- cAMP Accumulation Emax (% WT) [1, 10]: 97.02 ± 0.81 % WT
- Binding Span ± SEM [2, 11]: 75.3 ± 12.57
- Effect on binding of GLP-1 to GLP-1R (in words) [2]: decreased the binding of GLP-1 to GLP-1R
Structure (SMILES): O=C(O)c1cccc(NN=Cc2cn(-c3ccccc3)nc2-c2cc3ccccc3o2)c1 [Z21]

- Binding at C347F mutant (in words) [5]: enhanced the ligand binding
- Modulation of GLP-1-elicited cAMP accumulation / GLP-1 potency (in words) [1]: negatively modulated
- cAMP Accumulation Emax (% WT) [1, 10]: 99.72 ± 0.80 % WT
- Binding Span ± SEM [2, 11]: N.B. ^d
- Binding pIC50 ± SEM [2, 11]: N.B. ^d
Structure (SMILES): O=C(Nc1ccc(Cl)cc1)Nc1snnc1C(=O)Nc1ccc(C(=O)O)cc1 [Z42]

Structure (SMILES): CC(C)(C)Nc1nc2cc(Cl)c(Cl)cc2nc1S(C)(=O)=O [compound 2, 6,7-dichloro-3-methanesulfonyl-2-tert-butylamino-quinoxaline]
- Binding at C347F mutant (in words) [6]: abolishment
